Measured values as given in patent publication US20230193348A1, “DPP3 FOR THERAPY GUIDANCE, MONITORING AND STRATIFICATION OF NT-ADM ANTIBODIES IN PATIENTS WITH SHOCK” (4TEEN4 PHARMACEUTICALS GMBH, priority 2020, published 2023).

What was measured:
[1] = tested on: patients with septic shock and elevated adrenomedullin; assay: AdrenOSS-2 phase II clinical trial, 14-day mortality; assay type: in vivo, human; settings: vs placebo
Source text: AdrenOSS-2 is a double-blind, placebo-controlled, randomized, multicenter, proof of concept and dose-finding phase II clinical trial to investigate the safety, tolerability and efficacy of the N-terminal ADM antibody named Adrecizumab in patients with septic shock and elevated adrenomedullin (Geven et al. BMJ Open 2019;9:e024475). In total, 301 patients with septic shock and bio-ADM concentration > 70 pg/mL were randomized (2:1:1) to treatment with a single intravenous infusion over approximately 1 hour with either placebo (n=152), adrecizumab 2 ng/kg (n=72) or adrecizumab 4 ng/kg (n=77). All-cause mortality within 28 (90) days after inclusion was 25.8% (34.8%). Mean age was 68.4 years and 61% were male. For the per protocol analysis, n=294 patients remained eligible, and 14-day all-cause mortality rate was 18.5%.
In patients treated with Adrecizumab (both doses combined, per protocol population), a trend to lower short term mortality (14 days post admission) was observed compared to placebo (Hazard ratio (HR) 0.701 [0.408-1.21], p=0.100) (FIG. 8).

[2] = phase I study; cited from earlier work

## Adrecizumab: humanized version of an N-terminal anti-ADM antibody; heavy chain SEQ ID NO: 32, light chain SEQ ID NO: 33
[1]; patients with DPP3 <40
  HR 14-day mortality: 0.385
[1]; patients with DPP3 <50 (ng/mL on admission)
  HR 14-day mortality: 0.426
[1]; patients with DPP3 <60
  HR 14-day mortality: 0.449
[1]; patients with DPP3 <70
  HR 14-day mortality: 0.546
[1]; patients with DPP3 >40
  HR 14-day mortality: 1.35
[1]; patients with DPP3 >50 (ng/mL on admission)
  HR 14-day mortality: 1.69
[1]; patients with DPP3 >60
  HR 14-day mortality: 1.62
[1]; patients with DPP3 >70
  HR 14-day mortality: 1.24
[2]
  safety and tolerability, adverse events: no serious adverse events were observed
